The nature of series [1]: Phase 1 trial, rivastigmine and trospium administrations: rivastigmine blood serum concentration time profile (FIG. 2B). Particulars: 6 mg rivastigmine fed state one hour after 20 mg trospium fasting (subject 1008) versus simultaneous fasting (1001, 1002, 1005). As to the method: Patients 1001, 1002, and 1005 were administered trospium and rivastigmine simultaneously in a fasting state. Subject 1008 was administered trospium and rivastigmine in fasting and fed states, respectively.

Series [2] is described as follows: Phase 1 trial, rivastigmine and glycopyrrolate administrations: rivastigmine blood serum concentration time profile (FIG. 2A). The source says:
The serum rivastigmine levels were obtained over the course of twelve hours post-administration.

In the case of `CCN(C)C(=O)Oc1cccc([C@H](C)N(C)C)c1` [rivastigmine], in series [1], the “peak rivastigmine blood serum level, taken with food” value is “attenuated peak rivastigmine levels”. Moreover, the “rivastigmine blood serum concentration (time profile)” value in series [2] (patient 1006, co-formulated drug delivery element with glycopyrrolate taken in a fasting state, 12 hours post dose) worked out at 10 ng/mL. Also, in series [2] (patients 1010 and 1011, glycopyrrolate fasted, rivastigmine with food one hour later), the “adverse effects, separate versus simultaneous administration” value is “reduced adverse effects, particularly nausea”. The “peak rivastigmine serum concentration, separate versus simultaneous administration” value in series [2] (patients 1010 and 1011, glycopyrrolate fasted, rivastigmine with food one hour later, compared with patients 1003, 1004 coadministered fasted) is reported as “delayed peak serum concentration associated with lower peak rivastigmine levels”.

Values taken from US12109202B2, “Fixed dose combination of cholinesterase inhibitor and a quaternary ammonium antimuscarinic agent to treat neurodegenerative cognitive disorders” (priority 2021, dated 2024).
